These results are taken from ChEMBL document CHEMBL4024754, “Development of Potent, Protease-Resistant Agonists of the Parathyroid Hormone Receptor with Broad β Residue Distribution” (J Med Chem, 2017).

Numbered stars: 1 amine (or outer) side, 2 acyl side, 3 side chain; on linkers, the order of the positions; unused ones are H or OH. Square brackets hold non-standard residues; d marks the D form. Peptide text beside a SMILES is read from it. * marks the point of attachment. NH(1S,2S-2-CONH2-cPent) = NC(=O)[C@H]1CCC[C@@H]1N*; β3hW = N[C@H](CC(=O)O)Cc1c[nH]c2ccccc12; ACPC(1S,2S) = N[C@H]1CCC[C@@H]1C(=O)*; X1 = O=C([C@H]1CCC[C@@H]1N[*:1])[*:2]; X2 = O=C([C@H]1CNC[C@@H]1N[*:1])[*:2]; hArg = N=C(N)NCCCC[C@H](N)C(=O)O; β3hE = N[C@@H](CCC(=O)O)CC(=O)O; β3hF = N[C@H](CC(=O)O)Cc1ccccc1; β3hK = NCCCC[C@H](N)CC(=O)O; β3hM = CSCC[C@H](N)CC(=O)O; β3hD = NC(CC(=O)O)CC(=O)O; Aib = CC(C)(N)C(=O)O

Assay [1] addresses T1, Parathyroid hormone/parathyroid hormone-related peptide receptor (Homo sapiens) (UniProt Q03431).
T1 sequence (whole entry): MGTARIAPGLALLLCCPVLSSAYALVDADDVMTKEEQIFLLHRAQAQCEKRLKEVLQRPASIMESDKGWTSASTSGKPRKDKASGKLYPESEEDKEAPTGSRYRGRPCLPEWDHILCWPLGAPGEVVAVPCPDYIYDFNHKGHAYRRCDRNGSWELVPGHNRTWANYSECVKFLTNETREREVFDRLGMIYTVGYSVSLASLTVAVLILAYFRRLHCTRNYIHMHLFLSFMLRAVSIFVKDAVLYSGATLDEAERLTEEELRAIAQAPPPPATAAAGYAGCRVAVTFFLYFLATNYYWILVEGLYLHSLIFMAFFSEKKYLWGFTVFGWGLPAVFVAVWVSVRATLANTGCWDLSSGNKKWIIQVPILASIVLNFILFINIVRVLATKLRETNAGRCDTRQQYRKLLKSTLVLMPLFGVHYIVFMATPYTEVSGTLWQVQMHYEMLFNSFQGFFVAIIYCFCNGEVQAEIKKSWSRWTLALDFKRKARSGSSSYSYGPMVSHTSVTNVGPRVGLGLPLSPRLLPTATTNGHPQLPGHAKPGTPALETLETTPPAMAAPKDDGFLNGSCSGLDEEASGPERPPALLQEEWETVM
The assay can be described thus: Agonist activity at human PTH1 receptor expressed in human GP2.3 cells assessed as induction of cAMP after 12 to 20 mins by luciferase reporter gene assay relative to PTH(1 to 34 residues)-NH2. The class given is functional, cell-based. A general note: Reporter assays use an easily measured gene product as a stand-in for the process of interest.

The target of assay [2] is T2, Parathyroid hormone/parathyroid hormone-related peptide receptor (Homo sapiens, UniProt Q03431).
T2 sequence (Q03431 whole entry): T1 sequence (whole entry)
The experiment in a line: Agonist activity at human PTH1 receptor expressed in human GP2.3 cells assessed as induction of cAMP after 12 to 20 mins by luciferase reporter gene assay. The format is functional, cell-based. The following applies: read-out: EC50.

Turning to `CSCC[C@@H](CC(=O)N[C@@H](CCCNC(=N)N)C(=O)N[C@@H](CCCNC(=N)N)C(=O)N[C@H](C(=O)N[C@@H](CCC(=O)O)CC(=O)N[C@@H](Cc1c[nH]c2ccccc12)C(=O)N[C@@H](CC(C)C)C(=O)N[C@@H](CCCNC(=N)N)C(=O)N[C@@H](CCCCN)CC(=O)N[C@@H](CCCCN)C(=O)N[C@@H](CC(C)C)C(=O)N[C@@H](CCC(N)=O)C(=O)N[C@@H](CC(=O)O)CC(=O)N[C@H](C(=O)N[C@@H](Cc1cnc[nH]1)C(=O)N[C@@H](CC(N)=O)C(=O)N[C@H](CC(N)=O)Cc1ccccc1)C(C)C)C(C)C)NC(=O)[C@H](CO)NC(=O)[C@H](CC(N)=O)NC(=O)[C@H](CC(C)C)NC(=O)C[C@H](Cc1c[nH]c2ccccc12)NC(=O)[C@H](CCCCN)NC(=O)[C@H](C)NC(=O)[C@H](CCCCNC(=N)N)NC(=O)[C@H](CCC(N)=O)NC(=O)[C@H](Cc1cnc[nH]1)NC(=O)[C@H](CCSC)NC(=O)[C@H]1CCC[C@@H]1NC(=O)[C@H](CCC(N)=O)NC(=O)[C@H]1CCC[C@@H]1NC(=O)[C@H](CCC(=O)O)NC(=O)C(C)(C)NC(=O)[C@@H](NC(=O)[C@H]1CCC[C@@H]1N)C(C)C` ({ACPC(1S,2S)}-V[Aib]E[X1]Q[X1]MHQ[hArg]AK[β3hW]LNS[β3hM]RRV[β3hE]WLR[β3hK]KLQ[β3hD]VHN[β3hF]-NH2), in assay [1], the fold change (FC) is 9.7. Besides, the EC50 in assay [2] came out at 0.79 nM.

As to `CSCC[C@H](NC(=O)[C@H]1CCC[C@@H]1NC(=O)[C@H](CCC(N)=O)NC(=O)[C@H]1CCC[C@@H]1NC(=O)[C@H](CCC(=O)O)NC(=O)[C@H](CO)NC(=O)[C@@H](NC(=O)[C@H]1CCC[C@@H]1N)C(C)C)C(=O)N[C@@H](Cc1cnc[nH]1)C(=O)N[C@@H](CC(N)=O)C(=O)N[C@@H](CC(C)C)C(=O)NCC(=O)N[C@@H](CCCCN)C(=O)N[C@H]1CCC[C@@H]1C(=O)N[C@@H](CC(C)C)C(=O)N[C@@H](CC(N)=O)C(=O)N[C@@H](CO)C(=O)N[C@H]1CCC[C@@H]1C(=O)N[C@@H](CCC(=O)O)C(=O)N[C@@H](CCCNC(=N)N)C(=O)N[C@H](C(=O)N[C@H]1CNC[C@@H]1C(=O)N[C@@H](Cc1c[nH]c2ccccc12)C(=O)N[C@@H](CC(C)C)C(=O)N[C@@H](CCCNC(=N)N)C(=O)N[C@H]1CNC[C@@H]1C(=O)N[C@@H](CCCCN)C(=O)N[C@@H](CC(C)C)C(=O)N[C@@H](CCC(N)=O)C(=O)N[C@H]1CCC[C@@H]1C(=O)N[C@H](C(=O)N[C@@H](Cc1cnc[nH]1)C(=O)N[C@@H](CC(N)=O)C(=O)N[C@H]1CCC[C@@H]1C(N)=O)C(C)C)C(C)C` ({ACPC(1S,2S)}-VSE[X1]Q[X1]MHNLGK[X1]LNS[X1]ERV[X2]WLR[X2]KLQ[X1]VHN-{NH(1S,2S-2-CONH2-cPent)}), in assay [1], the fold change (FC) came to 234.

In the case of `CC[C@H](C)[C@H](NC(=O)C[C@H](CO)NC(=O)[C@H](CCCCN)NC(=O)CNC(=O)[C@H](CCCCN)NC(=O)[C@H](CC(=O)O)NC(=O)[C@H](Cc1cnc[nH]1)NC(=O)[C@H](CC(C)C)NC(=O)[C@H](CC(C)C)NC(=O)[C@H](CCC(N)=O)NC(=O)[C@H](Cc1cnc[nH]1)NC(=O)[C@H](CCC(=O)O)NC(=O)[C@H](CO)NC(=O)[C@@H](NC(=O)[C@H](C)N)C(C)C)C(=O)N[C@@H](CCC(N)=O)C(=O)N[C@@H](CC(=O)O)C(=O)N[C@H](CC(=O)N[C@@H](CCCNC(=N)N)C(=O)N[C@@H](CCCNC(=N)N)C(=O)N[C@@H](CCCNC(=N)N)C(=O)N[C@@H](CCC(=O)O)CC(=O)N[C@@H](CC(C)C)C(=O)N[C@@H](CC(C)C)C(=O)N[C@@H](CCC(=O)O)C(=O)N[C@@H](CCCCN)CC(=O)N[C@@H](CC(C)C)C(=O)N[C@@H](CC(C)C)C(=O)NC(C)(C)C(=O)N[C@@H](CCCCN)CC(=O)N[C@@H](CC(C)C)C(=O)N[C@@H](Cc1cnc[nH]1)C(=O)N[C@H](C(=O)N[C@@H](C)CC(N)=O)[C@@H](C)O)CC(C)C`, in assay [1], the fold change (FC) was found to be 60.4.

With `CC[C@H](C)[C@H](NC(=O)[C@H](CCC(=O)O)NC(=O)C(C)(C)NC(=O)[C@@H](NC(=O)[C@H]1CCC[C@@H]1N)C(C)C)C(=O)N[C@@H](CCC(N)=O)C(=O)N[C@H]1CCC[C@@H]1C(=O)N[C@@H](CCSC)C(=O)N[C@@H](Cc1cnc[nH]1)C(=O)N[C@@H](CCC(N)=O)C(=O)N[C@@H](CCCCNC(=N)N)C(=O)N[C@@H](C)C(=O)N[C@@H](CCCCN)C(=O)N[C@@H](Cc1c[nH]c2ccccc12)C(=O)N[C@@H](CC(C)C)C(=O)N[C@@H](CC(N)=O)C(=O)N[C@@H](CO)C(=O)N[C@@H](CCSC)C(=O)N[C@@H](CCCNC(=N)N)C(=O)N[C@@H](CCCNC(=N)N)C(=O)N[C@H](C(=O)N[C@@H](CCC(=O)O)C(=O)N[C@@H](Cc1c[nH]c2ccccc12)C(=O)N[C@@H](CC(C)C)C(=O)N[C@@H](CCCNC(=N)N)C(=O)N[C@@H](CCCCN)C(=O)N[C@@H](CCCCN)C(=O)N[C@@H](CC(C)C)C(=O)N[C@@H](CCC(N)=O)C(=O)N[C@@H](CC(=O)O)C(=O)N[C@H](C(=O)N[C@@H](Cc1cnc[nH]1)C(=O)N[C@@H](CC(N)=O)C(=O)N[C@@H](Cc1ccccc1)C(N)=O)C(C)C)C(C)C` ({ACPC(1S,2S)}-V[Aib]EIQ[X1]MHQ[hArg]AKWLNSMRRVEWLRKKLQDVHNF-NH2), the fold change (FC) in assay [1] is 6.3. The 50% effective concentration (EC50) in assay [2] was 0.52 nM.

Turning to `CC[C@H](C)[C@H](NC(=O)[C@H](CCC(=O)O)NC(=O)[C@H](C)NC(=O)[C@@H](NC(=O)[C@H](C)N)C(C)C)C(=O)N[C@@H](CCC(N)=O)C(=O)N[C@@H](CC(C)C)C(=O)N[C@@H](CCSC)C(=O)N[C@@H](Cc1cnc[nH]1)C(=O)N[C@@H](CCC(N)=O)C(=O)N[C@@H](CCCCNC(=N)N)C(=O)N[C@@H](C)C(=O)N[C@@H](CCCCN)C(=O)N[C@@H](Cc1c[nH]c2ccccc12)C(=O)N[C@@H](CC(C)C)C(=O)N[C@@H](CC(N)=O)C(=O)N[C@@H](CO)C(=O)N[C@@H](CCSC)C(=O)N[C@@H](CCCNC(=N)N)C(=O)N[C@@H](CCCNC(=N)N)C(=O)N[C@H](C(=O)N[C@@H](CCC(=O)O)C(=O)N[C@@H](Cc1c[nH]c2ccccc12)C(=O)N[C@@H](CC(C)C)C(=O)N[C@@H](CCCNC(=N)N)C(=O)N[C@@H](CCCCN)C(=O)N[C@@H](CCCCN)C(=O)N[C@@H](CC(C)C)C(=O)N[C@@H](CCC(N)=O)C(=O)N[C@@H](CC(=O)O)C(=O)N[C@H](C(=O)N[C@@H](Cc1cnc[nH]1)C(=O)N[C@@H](CC(N)=O)C(=O)N[C@@H](Cc1ccccc1)C(N)=O)C(C)C)C(C)C` (H-AVAEIQLMHQ[hArg]AKWLNSMRRVEWLRKKLQDVHNF-NH2), the fold change (FC) in assay [1] was found to be 4.2. Besides, the EC50 in assay [2] was 0.34 nM.

Regarding `CC[C@H](C)[C@H](NC(=O)[C@H]1CCC[C@@H]1NC(=O)[C@H](CCCCN)NC(=O)CNC(=O)[C@H](CCCCN)NC(=O)[C@H](CC(=O)O)NC(=O)[C@H](Cc1cnc[nH]1)NC(=O)[C@H](CC(C)C)NC(=O)[C@H](CC(C)C)NC(=O)[C@H](CCC(N)=O)NC(=O)[C@H](Cc1cnc[nH]1)NC(=O)[C@H](CCC(=O)O)NC(=O)[C@H](CO)NC(=O)[C@@H](NC(=O)[C@H](C)N)C(C)C)C(=O)N[C@@H](CCC(N)=O)C(=O)N[C@@H](CC(=O)O)C(=O)N[C@H]1CCC[C@@H]1C(=O)N[C@@H](CCCNC(=N)N)C(=O)N[C@@H](CCCNC(=N)N)C(=O)N[C@@H](CCCNC(=N)N)C(=O)N[C@H]1CNC[C@@H]1C(=O)N[C@@H](CC(C)C)C(=O)N[C@@H](CC(C)C)C(=O)N[C@@H](CCC(=O)O)C(=O)N[C@H]1CNC[C@@H]1C(=O)N[C@@H](CC(C)C)C(=O)N[C@@H](CC(C)C)C(=O)NC(C)(C)C(=O)N[C@H]1CCC[C@@H]1C(=O)N[C@@H](CC(C)C)C(=O)N[C@@H](Cc1cnc[nH]1)C(=O)N[C@H](C(=O)N[C@H]1CCC[C@@H]1C(N)=O)[C@@H](C)O` (H-AVSEHQLLHDKGK[X1]IQD[X1]RRR[X2]LLE[X2]LL[Aib][X1]LHT-{NH(1S,2S-2-CONH2-cPent)}), the fold change (FC) in assay [1] amounted to 2.6.

Turning to `CC[C@H](C)[C@H](NC(=O)[C@H]1CCC[C@@H]1NC(=O)[C@H](C)NC(=O)[C@H](NC(=O)[C@H](CC(C)C)NC(=O)[C@H]1CNC[C@@H]1NC(=O)[C@H](Cc1cnc[nH]1)NC(=O)[C@H](CC(C)C)NC(=O)[C@H](Cc1ccccc1)NC(=O)[C@H]1CNC[C@@H]1NC(=O)[C@H](CCCNC(=N)N)NC(=O)[C@H](CCCNC(=N)N)NC(=O)[C@H](CCCNC(=N)N)NC(=O)[C@H]1CCC[C@@H]1NC(=O)[C@H](CC(=O)O)NC(=O)[C@H](CCC(N)=O)NC(=O)[C@@H](NC(=O)[C@H]1CCC[C@@H]1NC(=O)[C@H](CCCCN)NC(=O)CNC(=O)[C@H](CCCCN)NC(=O)[C@H](CC(=O)O)NC(=O)[C@H](Cc1cnc[nH]1)NC(=O)[C@H](CC(C)C)NC(=O)[C@H](CC(C)C)NC(=O)[C@H](CCC(N)=O)NC(=O)[C@H](Cc1cnc[nH]1)NC(=O)[C@H](CCC(=O)O)NC(=O)[C@H](CO)NC(=O)[C@@H](NC(=O)[C@H](C)N)C(C)C)[C@@H](C)CC)[C@@H](C)CC)C(=O)N[C@@H](Cc1cnc[nH]1)C(=O)N[C@H](C(=O)N[C@H]1CCC[C@@H]1C(N)=O)[C@@H](C)O`, the fold change (FC) in assay [1] stood at 9.4.

For orientation: EC50 means the concentration needed to bring the measured effect to its halfway point.
